Experimental data published in patent publication US7291730B2, “Pyrimidine compounds and their use” (Sumitomo Chemical Company, Limited, priority 2000, dated 2007).

Tested on: Western Flower Thrips (Frankliniella occidentalis)
Experiment: Insecticidal test against western flower thrips, sprayed cucumber leaves (Test Example 3)
Type: in vivo
Settings: 500 ppm, sprayed 20 ml/cup onto cucumber, thirty larvae on cut first foliage leaves, after 7 days
Method: A formulation of a test compound obtained in Formulation Example 5 was diluted with water so that the active ingredient concentration came to 500 ppm to prepare a test spray solution. The seeds of cucumber were planted in polyethylene cups and grown until their first foliage leaves developed, and the above test spray solution was sprayed at the rate of 20 ml/cup onto these cucumber plants. After the chemical solution sprayed onto the cucumber plants was dried, the first foliage leaves were cut off and placed on a water-containing filter paper (70 mm in diameter) in a polyethylene cup (110 mm in diameter). Thirty larvae of western flower thrips (Frankliniella occidentalis) were set free in the polyethylene cup, and the lid was put on the polyethylene cup. After 7 days, the number of surviving insects was examined.
With CC#CCOc1cc(OCC#CC)ncn1 [(1)] the “number of surviving insects” value was “zero”.
With CC#CCOc1ncnc(Oc2ccccc2F)c1F [(183)] the “number of surviving insects” value was “zero”.
For C#CCOc1cc(-c2ccccc2F)ncn1 [(54)], the “number of surviving insects” value was “zero”.
In the case of C#CCOc1cc(-c2ccc(F)cc2)ncn1 [(58)], the “number of surviving insects” value was “zero”.
In the case of CC#CCOc1cc(-c2ccc(F)cc2)ncn1 [(59)], the “number of surviving insects” value was “zero”.
With C#CCOc1cc(Oc2ccccc2Cl)ncn1 [(19)] the “number of surviving insects” value was “zero”.
For CC#CCOc1cc(-c2cccc(F)c2F)ncn1 [(83)], the “number of surviving insects” value was “zero”.
With C#CCOc1cc(-c2ccccc2)nc(C)n1 [(77)] the “number of surviving insects” value was “zero”.
In the case of CCC#CCOc1cc(OCC#CCC)ncn1 [(3)], the “number of surviving insects” value was “zero”.
In the case of CC#CCOc1ncnc(Oc2c(F)cccc2F)c1F [(190)], the “number of surviving insects” value was “zero”.
With C#CCOc1cc(-c2cccc(F)c2F)ncn1 [(82)] the “number of surviving insects” value was “zero”.
In the case of CC#CCOc1cc(Oc2c(F)cc(F)cc2F)ncn1 [(45)], the “number of surviving insects” value was “zero”.
For C#CCOc1cc(Oc2cccc(C(F)(F)F)c2)ncn1 [(17)], the “number of surviving insects” value was “zero”.
For CC#CCOc1cc(Oc2ccccc2F)ncn1 [(63)], the “number of surviving insects” value was “zero”.
For C#CCOc1cc(OCc2ccccc2)ncn1 [(13)], the “number of surviving insects” value was “zero”.
With CC#CCOc1cc(-c2ccccc2F)ncn1 [(55)] the “number of surviving insects” value was “zero”.
For C#CC(C)Oc1cc(-c2ccccc2F)ncn1 (centres unmarked) [(150)], the “number of surviving insects” value was “zero”.
In the case of CC#CCOc1cc(O[C@@H]2CCC[C@H]2C)ncn1 (relative stereo) [(169)], the “number of surviving insects” value was “zero”.
With C#CCOc1cc(Oc2cccc(C)c2)ncn1 [(29)] the “number of surviving insects” value was “zero”.
In the case of C#CCOc1cc(Oc2cccc(Cl)c2)ncn1 [(15)], the “number of surviving insects” value was “zero”.
In the case of C#CCOc1cc(Oc2c(F)cccc2F)ncn1 [(21)], the “number of surviving insects” value was “zero”.
In the case of C#CCOc1cc(Oc2ccccc2)ncn1 [(51)], the “number of surviving insects” value was “zero”.
For CC#CCOc1cc(Cc2c(F)cccc2F)ncn1 [(80)], the “number of surviving insects” value was “zero”.
For CC#CCOc1cc(OCC#CC(C)(C)C)ncn1 [(7)], the “number of surviving insects” value was “zero”.
For CC#CCOc1cc(Oc2ccc(F)cc2Cl)ncn1 [(16)], the “number of surviving insects” value was “zero”.
For CC#CCOc1cc(OC2CCCC(C)C2)ncn1 (centres unmarked) [(182)], the “number of surviving insects” value was “zero”.
In the case of CC#CCOc1cc(Oc2cc(F)ccc2F)ncn1 [(43)], the “number of surviving insects” value was “zero”.
In the case of C#CC(C)Oc1cc(-c2cccc(F)c2F)ncn1 (centres unmarked) [(134)], the “number of surviving insects” value was “zero”.
For CC#CCOc1ncnc(Cc2ccccc2F)c1F [(191)], the “number of surviving insects” value was “zero”.
In the case of CC#CCOc1ncnc(Oc2cccc(F)c2F)c1F [(180)], the “number of surviving insects” value was “zero”.
For CC#CCOc1cc(-c2ccc(F)cc2F)ncn1 [(44)], the “number of surviving insects” value was “zero”.

Tested on: not given
Experiment: not given
Settings: not given
Compound C#CCOc1cc(Oc2cc(Cl)cc(Cl)c2)ncn1 [present compound (24), 4-(3,5-dichlorophenoxy)-6-(2-propynyloxy)pyrimidine] has a melting point of 136.5 °C.
For C#CCOc1cc(Oc2ccccc2C)ncn1 [present compound (27), 4-(2-methylphenoxy)-6-(2-propynyloxy)pyrimidine], the melting point was 64.8 °C.
CC#CCOc1cc(OCC#CC)ncn1 [present compound (1), 4,6-bis(2-butynyloxy)pyrimidine] showed a melting point of 82.9 °C.
For CC#CCOc1cc(Oc2ccc([N+](=O)[O-])cc2F)ncn1 [present compound (65), 4-(2-fluoro-4-nitrophenoxy)-6-(2-butynyloxy)pyrimidine], the melting point was 132.1 °C.
CC#CCOc1cc(Oc2ccc(C#N)cc2)ncn1 [present compound (41), 4-(2-butynyloxy)-6-(4-cyanophenoxy)pyrimidine] showed a melting point of 162 °C.
With CC#CCOc1cc(Oc2ccc(F)c(C(F)(F)F)c2)ncn1 [present compound (48), 4-(2-butynyloxy)-6-(4-fluoro-3-trifluoromethylphenoxy)pyrimidine] the melting point was 90.1 °C.
With C#CCOc1cc(Oc2cc(Cl)ccc2Cl)ncn1 [present compound (25), 4-(2,5-dichlorophenoxy)-6-(2-propynyloxy)pyrimidine] the melting point was 87.7 °C.
Work on CC#CCOc1cc(Oc2ccc(Cl)cc2F)ncn1 [present compound (4), 4-(2-butynyloxy)-6-(4-chloro-2-fluorophenoxy)pyrimidine] yielded a melting point of 117.7 °C.
Work on CC#CCOc1cc(Oc2c(F)cc(F)cc2F)ncn1 [present compound (45), 4-(2-butynyloxy)-6-(2,4,6-trifluorophenoxy)pyrimidine] yielded a melting point of 60.3 °C.
For C#CCOc1cc(Oc2ccc(Cl)c(Cl)c2)ncn1 [present compound (23), 4-(3,4-dichlorophenoxy)-6-(2-propynyloxy)pyrimidine], the melting point was 109.2 °C.
C#CCOc1cc(Oc2cccc(Cl)c2)ncn1 [present compound (15), 4-(3-chlorophenoxy)-6-(2-propynyloxy)pyrimidine] showed a melting point of 71.6 °C.
Compound C#CCOc1cc(Oc2ccccc2Cl)ncn1 [present compound (19), 4-(2-chlorophenoxy)-6-(2-propynyloxy)pyrimidine] has a melting point of 76.2 °C.
C#CCOc1cc(Oc2ccc(Cl)cc2)ncn1 [present compound (14), 4-(4-chlorophenoxy)-6-(2-propynyloxy)pyrimidine] showed a melting point of 100.3 °C.
CC#CCOc1cc(Oc2cccc(C#N)c2)ncn1 [present compound (40), 4-(2-butynyloxy)-6-(3-cyanophenoxy)pyrimidine] showed a melting point of 121.2 °C.
CC#CCOc1cc(OCc2cccc(F)c2F)ncn1 [present compound (76), 4-(2,3-difluorobenzyloxy)-6-(2-butynyloxy)pyrimidine] showed a melting point of 84.9 °C.
Compound CC#CCOc1cc(-c2ccc(F)cc2F)ncn1 [present compound (44), 4-(2-butynyloxy)-6-(2,4-difluorophenyl)pyrimidine] has a melting point of 63.9 °C.
In the case of C#CCOc1cc(Oc2ccc(Cl)cc2Cl)ncn1 [present compound (22), 4-(2,4-dichlorophenoxy)-6-(2-propynyloxy)pyrimidine], the melting point was 106.7 °C.
Work on C#CCOc1cc(Oc2c(F)cccc2F)ncn1 [present compound (21), 4-(2,6-difluorophenoxy)-6-(2-propynyloxy)pyrimidine] yielded a melting point of 67.2 °C.
With C#CCOc1cc(Oc2ccc(F)cc2)ncn1 [present compound (35), 4-(4-fluorophenoxy)-6-(2-propynyloxy)pyrimidine] the melting point was 81.4 °C.
For CC#CCOc1cc(-c2ccccc2)ncn1 [present compound (38), 4-(2-butynyloxy)-6-phenylpyrimidine], the melting point was 59.6 °C.
Compound CC#CCOc1cc(Nc2ccccc2)ncn1 [present compound (53), 4-anilino-6-(2-butynyloxy)pyrimidine] has a melting point of 159.3 °C.
Compound CC#CCOc1cc(N(C)c2ccccc2)ncn1 [present compound (93), 4-(N-methyl-N-phenylamino)-6-(2-butynyloxy)pyrimidine] has a melting point of 57.6 °C.
In the case of C#CCOc1cc(Oc2ccccc2)ncn1 [present compound (51), 4-phenoxy-6-(2-propynyloxy)pyrimidine], the melting point was 71.1 °C.
Compound CC#CCOc1cc(Oc2cccc(F)c2)ncn1 [present compound (61), 4-(3-fluorophenoxy)-6-(2-butynyloxy)pyrimidine] has a melting point of 60.1 °C.
CC#CCOc1cc(N(C)c2cccc(F)c2F)ncn1 [present compound (66), 4-(N-methyl-N-(2,3-difluorophenyl)amino)-6-(2-butynyloxy)pyrimidine] showed a melting point of 77.5 °C.
With CC#CCOc1cc(Cc2cccc(F)c2)ncn1 [present compound (100), 4-(2-butynyloxy)-6-(3-fluorobenzyl)pyrimidine] the melting point was 51.5 °C.
C#CCOc1cc(Oc2cccc(Cl)c2Cl)ncn1 [present compound (26), 4-(2,3-dichlorophenoxy)-6-(2-propynyloxy)pyrimidine] gave a melting point of 91.9 °C.
For C#CCOc1cc(-c2ccccc2)ncn1 [present compound (37), 4-phenyl-6-(2-propynyloxy)pyrimidine], the melting point was 65.1 °C.
CC#CCOc1cc(Oc2c(F)cccc2F)ncn1 [present compound (33), 4-(2-butynyloxy)-6-(2,6-difluorophenoxy)pyrimidine] gave a melting point of 79.8 °C.
With C#CCOc1cc(Oc2ccc(OC)cc2)ncn1 [present compound (31), 4-(4-methoxyphenoxy)-6-(2-propynyloxy)pyrimidine] the melting point was 72 °C.
Work on C#CCOc1cc(OCC#C)ncn1 [present compound (52), 4,6-bis(2-propynyloxy)pyrimidine] yielded a melting point of 74 °C.
With CC#CCOc1cc(OCC#CCC)ncn1 [present compound (6), 4-(2-butynyloxy)-6-(2-pentynyloxy)pyrimidine] the melting point was 67.4 °C.
For CC#CCOc1cc(Oc2cccc(C(C)=O)c2)ncn1 [present compound (71), 4-(2-butynyloxy)-6-(3-acetylphenoxy)pyrimidine], the melting point was 94 °C.
CC#CCOc1cc(Oc2ccc(F)cc2)ncn1 [present compound (62), 4-(4-fluorophenoxy)-6-(2-butynyloxy)pyrimidine] showed a melting point of 115.8 °C.
CC#CCOc1cc(Cc2c(F)cccc2F)ncn1 [present compound (80), 4-(2,6-difluorobenzyl)-6-(2-butynyloxy)pyrimidine] gave a melting point of 57.6 °C.
CC#CCOc1cc(Nc2cccc(F)c2F)ncn1 [present compound (73), 4-(N-(2,3-difluorophenyl)amino)-6-(2-butynyloxy)pyrimidine] gave a melting point of 147.6 °C.
For CC#CCOc1cc(Oc2ccc(F)c(F)c2)ncn1 [present compound (10), 4-(2-butynyloxy)-6-(3,4-difluorophenoxy)pyrimidine], the melting point was 109.7 °C.
